Measured values from EP1935887A1, “Heterocyclic substituted carbonyl derivatives and their use as dopamine D3 receptor ligands” (Aventis Pharmaceuticals Inc., priority 2001, dated 2002).
Read-outs that look alike come from different tables or passages of the source.

Legend:
[1] = molecular target: T1, CLONED HUMAN ALPHA-1A ADRENERGIC RECEPTORS (α1a) (Homo sapiens, UniProt P35348); experiment: [3H]Prazosin binding to cloned human alpha-1A adrenergic receptors expressed in CHO cells
T1 construct: expressed in transfected cells; host or cells: CHO cells, G418-resistant clone #7, vector pcDNA3; membranes
T1 sequence (P35348 1-466): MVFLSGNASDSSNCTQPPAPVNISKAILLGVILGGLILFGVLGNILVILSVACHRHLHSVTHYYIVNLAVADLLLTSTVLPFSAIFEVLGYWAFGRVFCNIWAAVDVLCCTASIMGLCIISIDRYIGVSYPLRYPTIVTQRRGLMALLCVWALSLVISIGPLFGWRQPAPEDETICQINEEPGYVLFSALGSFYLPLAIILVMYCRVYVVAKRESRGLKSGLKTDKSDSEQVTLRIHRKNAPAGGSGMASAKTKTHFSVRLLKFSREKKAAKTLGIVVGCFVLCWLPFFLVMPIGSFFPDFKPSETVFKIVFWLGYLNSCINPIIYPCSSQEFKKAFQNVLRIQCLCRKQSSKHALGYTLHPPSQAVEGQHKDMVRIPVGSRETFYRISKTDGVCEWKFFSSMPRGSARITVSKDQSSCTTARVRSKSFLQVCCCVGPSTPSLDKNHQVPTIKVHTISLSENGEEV
Description: ^3H]PRAZOSIN BINDING TO CLONED HUMAN ALPHA-1A ADRENERGIC RECEPTORS (α1a) EXPRESSED IN CHINESE HAMSTER OVARY CELLS (CHO)
• purpose: This in vitro assay is designed as a screen to identify compounds displaying a affinity for the human α1a adrenoceptor subtype expressed in the membrane fragments of CHO cells. The assay measures the ability of the test compounds to displace [^3H] prazosin from α1a sites. The identification of multiple vascular α1-addrenoceptors (α1a, α1b, α1d) in vitro has provided impetus to define the role(s) of these subtypes in cardiovascular regulation in vivo (Vargas and Gorman, 1995). […] Therefore, the binding of compounds to α1a adrenergic receptors is believed to be a good measure of a compound's potential to cause orthostatic hypotension and sedation as side effects. Prazosin is a potent antagonist of the human α1a-adrenoceptor subtype, which has been cloned and is expressed in the membrane fragments of CHO cells. • hα1areceptor: The cloning of the human α1a cDNA was accomplished first by screening a human prostate cDNA library (Clontech), from which a portion of the coding region was obtained. This DNA fragment was then used to screen a human leukocyte genomic library (Clontech), and the rest of the coding sequence was obtained. Later these two fragments were spliced together. The entire coding sequence was then fully sequenced including matching PCR sequence with original genomic coding sequence, thus ensuring splice sites were joined correctly (Schwinn et al., 1995). Once sequenced, the gene was subcloned into the expression vector pcDNA3 (Invitrogen). Plasmid DNA was then used for transfection into CHO cells and G418 resistant clones were isolated. A clone expressing high levels of the hα1a receptor (as determined by mRNA and receptor binding data) was chosen and pharmacologically characterized. • Culture Media: Media Ingredients for Adherent α1a expressing CHO Culture: • A. HAM's F-12 (Cellgro) • B. 10% 0.2 micron filtered Fetal Bovine Serum (FBS)(Cellgro) • C. 1% 0.2 micron filtered Penicillin-Streptomycin (Cellgro) • D. G418 0.2 micron filtered (Geneticin 400µg/ml)(Cellgro) Cells are cultured using established methods and procedures in either 150x25mm culture plates (scale up to 100 plates) or a combination of these plates and 70 roller bottles. One culturing/harvest cycle typically requires 2 weeks and yields between 100-400mg protein. Plates or bottles are incubated at 37°C + 5% CO2. • Storage: Cells are harvested by mechanical scraping, washed using PBS, collected in 250ml Corning polypropylene centrifuge tubes, spun down (1500RPM) and resuspended in dH2O 10% DMSO (final volume per harvest is approximately 50ml). Protein determination is made using the Biorad DC Assay Kit. […] Bd. = 50µl 10µM phentolamine+50 µl [^3H]prazosin+100µl membrane Test Cpd. = 50µl compound + 50µl [^3H]prazosin + 100µl membrane Compounds to be evaluated are weighed out to yield a 10 mM stock solution in DMSO in a 24 well polystyrene plate. This is diluted to a 0.5 mM stock in dH2O. Serial dilutions in Buffer A are made from which 50 µl additions to the plate are made in duplicate in order to achieve the final concentrations desired. Typically, one 96 well plate is used to evaluate 11 compounds at 4 concentrations (10^-6-10^-9 M) in duplicate. Total binding and nonspecific binding are determined in quadruplicate. Usually one standard is run with each assay. [^3H]Prazosin is made up in Buffer A such that when 50 µl are added per well the final concentration is 1.0 nM in a final assay volume of 200 µl. The final concentration should be verified by running a sample in a scintillation counter prior to adding the [^3H]prazosin to the 96 well plate. Note: The radioactivity should be prepared just before the additions are made so that it is not allowed to sit on the bench for very long. […]

[2] = molecular target: T2, Cloned Human Dopamine D3 Receptors (Homo sapiens, UniProt P35462); experiment: [N-Methyl-3H]Spiroperidol binding to cloned human dopamine D3 receptors
T2 construct: expressed in transfected cells; membrane homogenate
In short: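 [N-methyl-3H]spiroperidol binding is run in Tris buffer, pH 7.7. Receptor source is membranes of a stably transfected, high-expressing CHO clone carrying the human D3 gene, kept at -80°C in 10% DMSO.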

[3] = Table 2, unit inferred, read-out: d3Ki

T2 sequence (P35462 whole entry): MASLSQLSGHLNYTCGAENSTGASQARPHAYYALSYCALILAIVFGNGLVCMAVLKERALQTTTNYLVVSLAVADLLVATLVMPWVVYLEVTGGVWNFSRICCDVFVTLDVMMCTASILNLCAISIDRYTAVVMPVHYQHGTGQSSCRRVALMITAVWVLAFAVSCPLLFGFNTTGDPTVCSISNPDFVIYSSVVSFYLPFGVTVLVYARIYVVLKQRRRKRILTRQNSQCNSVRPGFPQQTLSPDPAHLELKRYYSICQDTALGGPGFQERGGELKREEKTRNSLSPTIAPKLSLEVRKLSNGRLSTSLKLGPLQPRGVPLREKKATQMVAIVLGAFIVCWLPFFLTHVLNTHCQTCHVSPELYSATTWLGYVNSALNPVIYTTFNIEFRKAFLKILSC

CC1CCCN(C(=O)CCCN2CCN(c3csc4cc(F)ccc34)CC2)C1 (stereo not shown) [compound 826855]
Ki ([1]; human alpha-1 receptor, read-out: halpha1Ki (nM) h=human): 0.689 nM

CCN(C(=O)CCCN1CCN(c2csc3cc(C(F)(F)F)ccc23)CC1)C1CCCCC1 [compound 826809]
halpha1 % I h=human ([1]; @ 1 uM): 30.5% Inh @ 1 uM

CC1(C)CCCN(C(=O)CCCN2CCN(c3csc4cc(C(F)(F)F)ccc34)CC2)C1 [compound 826817]
halpha1 % I h=human ([1]; @ 1 uM): 44.4% Inh @ 1 uM

C[C@H]1CC[C@H](NC(=O)CCCN2CCN(c3csc4cc(C(F)(F)F)ccc34)CC2)CC1 [compound 826804]
halpha1 % I h=human ([1]; @ 1 uM): 32.8% Inh @ 1 uM

CCOC(=O)[C@H]1CC[C@H](NC(=O)CCCN2CCN(c3csc4cc(C(F)(F)F)ccc34)CC2)CC1 [compound 826805]
halpha1 % I h=human ([1]; @ 1 uM): 27.8% Inh @ 1 uM

CC[C@H]1CC[C@H](NC(=O)CCCN2CCN(c3csc4cc(C(F)(F)F)ccc34)CC2)CC1 [compound 826806]
halpha1 % I h=human ([1]; @ 1 uM): 10.3% Inh @ 1 uM

O=C(CCCN1CCN(c2csc3cc(C(F)(F)F)ccc23)CC1)NC1CCCCC1 [compound 826821]
halpha1 % I h=human ([1]; @ 0.1 nM): 24% Inh @ 0.1 nM

O=C(NC1CCN(C(=O)Nc2ccc(F)cc2)CC1)[C@@H]1C[C@H]1CN1CCC(c2noc3ccsc23)CC1 [compound 833715]
Ki ([2]; D3 Ki (nM)): 5.7 nM

O=C(NCc1ccccc1)[C@@H]1CCC[C@H]1N1CCN(c2csc3cc(F)ccc23)CC1 [compound 825830]
Ki ([2]; read-out: d3Ki): 64.6 nM

CN1CCN(CCCNC(=O)[C@@H]2C[C@H]2CN2CCN(c3nc4cccc5c4n3CCC5)CC2)CC1 [A002439100]
Ki ([2]; read-out: D3 Ki): 552 nM

O=C(CCCN1CCCN(c2csc3cc(F)ccc23)CC1)N1CCC(N2CCCC2)CC1 [compound 826836]
Ki ([2]; Table 2 part the 10th table, read-out: d3Ki): 2.23 nM

C[C@H]1CC[C@H](NC(=O)[C@@H]2C[C@H]2CN2CCN(c3cccc(C(F)(F)F)c3)CC2)CC1 [compound 827190]
Ki ([2]; read-out: d3Ki): 2.42 nM

C[C@H]1CC[C@H](NC(=O)[C@@H]2C[C@H]2CN2CCN(Cc3ccc4c(c3)OCO4)CC2)CC1 [compound 827201]
Ki [2, 3]: 126 nM

O=C(CCCCN1CCN(c2csc3cc(F)ccc23)CC1)Nc1ccc(F)cc1 [compound 813384]
Ki [2, 3]: 74 nM

C[C@@]1(C(=O)NCc2cccs2)C[C@H]1CN1CCN(c2csc3cc(C(F)(F)F)ccc23)CC1 [compound 825898]
Ki [2, 3]: 49 nM

CC(=O)c1ccc(N2CCN(C[C@@H]3C[C@H]3C(=O)N[C@H]3CC[C@H](C)CC3)CC2)cc1 [compound 827206]
Ki ([2]; read-out: d3Ki): 59.7 nM
